Patent publication US7528140B2, “Substituted pyrrolo[3,2-d]pyrimidines as glycogen synthase kinase (GSK) inhibitors” (Teijin Limited, priority 2002, dated 2009)

Each compound was assayed against recombinant human GSK-3β (Homo sapiens, UniProt P49841) (assay: Measurement of GSK-3 enzyme activity inhibition (32P phosphorylation of phospho-glycogen synthase peptide-2)). Settings: 20 μM ATP, 20 minutes at room temperature, read-out: GSK-3 enzyme inhibiting activity (IC50).
Type: biochemical
Method: Measurement of GSK-3 Enzyme Activity Inhibition
After adding 25 μL of phospho-glycogen synthase peptide-2 substrate solution [6 μM phospho -glycogen synthase peptide-2, 20 μM ATP, 16 mM MOPS buffer (pH 7.0), 0.2 mM EDTA, 20 mM magnesium acetate, 0.1 μCi [γ-^32P]ATP (specific activity: approximately 110 TBq/mmol)]to 5 μL of the test compound using 5% dimethylsulfoxide as the solvent, reaction was initiated by further addition of 20 μL of a GSK-3β enzyme solution [10 mU recombinant human GSK-3β, 20 mM MOPS buffer (pH 7.0), 1 mM EDTA, 0.1% polyoxyethylene lauryl ether (23 Lauryl Ether; Brij 35), 5% glycerol, 0.1% β-mercaptoethanol]. After conducting the reaction for 20 minutes at room temperature, an equivalent volume of a 200 mM phosphoric acid solution was added to quench the reaction, and 90 μL of the reaction product was adsorbed onto a MultiScreen PH plate (Millipore) and rinsed with a 100 mM phosphoric acid solution. After drying the plate, 30 μL of Micro Scint-O (Packard BioScience) was added, and the cpm was measured with a scintillation counter to determine the inhibiting activity. Phospho GS Peptide2 is […]P)-Glu-Asp-Glu-Glu-Glu (SEQ ID NO:1).

Sequence of recombinant human GSK-3β (P49841 whole entry): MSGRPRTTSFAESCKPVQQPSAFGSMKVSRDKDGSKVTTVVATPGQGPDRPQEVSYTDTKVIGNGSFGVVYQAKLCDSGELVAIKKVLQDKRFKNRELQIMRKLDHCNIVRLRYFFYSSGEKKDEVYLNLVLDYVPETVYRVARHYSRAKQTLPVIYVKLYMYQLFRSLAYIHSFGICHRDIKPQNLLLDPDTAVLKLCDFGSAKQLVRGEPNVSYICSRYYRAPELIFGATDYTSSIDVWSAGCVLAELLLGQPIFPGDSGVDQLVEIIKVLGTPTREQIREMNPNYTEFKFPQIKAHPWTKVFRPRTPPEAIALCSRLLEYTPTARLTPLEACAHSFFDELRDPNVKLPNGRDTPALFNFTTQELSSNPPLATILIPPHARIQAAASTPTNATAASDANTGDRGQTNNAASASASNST

Row | Structure (SMILES) | IC50 [nM]
1 | COCCCn1c(-c2ccccc2)c(C#N)c2nc[nH]c(=O)c21 [1-0227] | 1000 to 10000
2 | N#Cc1c(-c2ccccc2)n(CCOc2ccccc2)c2c(=S)[nH]cnc12 [1-0372] | 1000 to 10000
3 | N#Cc1c(-c2ccccc2)n(CCC(=O)N2CCC(C(=O)O)CC2)c2c(=S)[nH]cnc12 [3-0231, 1-[3-(7-cyano-6-phenyl-4-thioxo-3-hydropyrrolo[3,2-d]pyrimidin-5-yl)propanoyl]piperidine-4-carboxylic acid] | < 10
4 | N#Cc1c(-c2ccccc2)n(CCN2C(=O)c3ccccc3C2=O)c2c(=S)[nH]cnc12 [1-0501, 5-[2-(1,3-dioxoisoindolin-2-yl)ethyl]-6-phenyl-4-thioxo-3-hydropyrrolo[3,2-d]pyrimidine-7-carbonitrile] | 1000 to 10000
5 | N#Cc1c(NC2CC2)n(CCNC(=O)c2ccccc2)c2c(=S)[nH]cnc12 [6-0413, N-{2-[7-cyano-6-(cyclopropylamino)-4-thioxo(3-hydropyrrolo[3,2-d]pyrimidin-5-yl)]ethyl}benzamide] | 10 to 30
6 | CC(C)OCCCn1c(-c2cc(O)cc(O)c2)c(C#N)c2nc[nH]c(=S)c21 [1-0529, 6-(3,5-dihydroxyphenyl)-5-[3-(methylethoxy)propyl]-4-thioxo-3-hydropyrrolo[3,2-d]pyrimidine-7-carbonitrile] | 10 to 30
7 | N#Cc1c(-c2ccccc2N)[nH]c2c(=S)[nH]cnc12 [1-0753, 6-(2-aminophenyl)-4-thioxo-3-hydropyrrolo[3,2-d]pyrimidine-7-carbonitrile] | 1000 to 10000
8 | Cc1ccoc1-c1c(C#N)c2nc[nH]c(=O)c2n1CCNC(=O)C(F)(F)F [2-1664, N-{2-[7-cyano-6-(3-methyl(2-furyl))-4-oxo(3-hydropyrrolo[3,2-d]pyrimidin-5-yl)]ethyl}-2,2,2-trifluoroacetamide] | 1000 to 10000
9 | N#Cc1c(-c2c(F)cccc2F)n(CCN)c2c(=S)[nH]cnc12 [1-0460, 5-(2-aminoethyl)-6-(2,6-difluorophenyl)-4-thioxo-3-hydropyrrolo[3,2-d]pyrimidine-7-carbonitrile] | 1000 to 10000
10 | CC(C)CCn1c(-c2ccccc2)c(C#N)c2nc[nH]c(=O)c21 [1-0113] | 1000 to 10000
11 | Cc1ccc(N)c(C(=O)NCCn2c(-c3ccccc3)c(C#N)c3nc[nH]c(=S)c32)c1 [2-0635, (2-amino-5-methylphenyl)-N-[2-(7-cyano-6-phenyl-4-thioxo(3-hydropyrrolo[3,2-d]pyrimidin-5-yl))ethyl]carboxamide] | 30 to 100
12 | N#Cc1c(-c2ccccc2)n(CCc2nc(-c3ccccc3)no2)c2c(=S)[nH]cnc12 [1-0495, 6-phenyl-5-[2-(3-phenyl(1,2,4-oxadiazol-5-yl))ethyl]-4-thioxo-3-hydropyrrolo[3,2-d]pyrimidine-7-carbonitrile] | 1000 to 10000
13 | N#Cc1c(-c2ccccc2)n(CCNC(=O)c2ccccc2)c2c(=S)[nH]cnc12 [2-0558] | 30 to 100
14 | N#Cc1c(-c2ccccc2)n(CCC(=O)N2CCOCC2)c2c(=S)[nH]cnc12 [3-0294] | 30 to 100
15 | CC(C)(C)Cn1c(-c2ccccc2)c(C#N)c2nc[nH]c(=S)c21 [1-0129] | 1000 to 10000
16 | Cn1cccc1-c1c(C#N)c2nc[nH]c(=S)c2n1CCNC(=O)C(F)(F)F [2-0604, N-{2-[7-cyano-6-(1-methylpyrrol-2-yl)-4-thioxo(3-hydropyrrolo[3,2-d]pyrimidin-5-yl)]ethyl}-2,2,2-trifluoroacetamide] | 30 to 100
17 | CCOC(=O)CCCn1c(-c2ccccc2)c(C#N)c2nc[nH]c(=O)c21 [4-0030] | 1000 to 10000
18 | CN(C)c1c(C#N)c2nc[nH]c(=S)c2n1CCNC(=O)c1ccc(F)cc1 [6-1029, N-{2-[6-(dimethylamino)-7-cyano-4-thioxo(3-hydropyrrolo[3,2-d]pyrimidin-5-yl)]ethyl}(4-fluorophenyl)carboxamide] | 30 to 100
19 | CCOC(=O)CCn1c(-c2ccccc2)c(C#N)c2nc[nH]c(=S)c21 [4-0005, ethyl 3-(7-cyano-6-phenyl-4-thioxo-3-hydropyrrolo[3,2-d]pyrimidin-5-yl)propanoate] | 1000 to 10000
